# Results taken from US20240325398A1, “COMBINATION THERAPIES” (Infinity Pharmaceuticals, Inc., priority 2014, published 2024).
# Assays:
# Assay in all cases: Combination study, ATPLite 72 h, dose matrix (Synergy Score, CI50)
# TMD8 = settings: for CI50 growth inhibition / CI50 inhibition / Synergy Score growth inhibition / Synergy Score inhibition: TMD8
# Method: (§1) Cells are thawed from a liquid nitrogen preserved state. Once cells have been expanded and divide at their expected doubling times, screening begins. Cells are seeded in growth media in either black 1536-well or 384-well tissue culture treated plates. Cells are then equilibrated in assay plates via centrifugation and placed in incubators attached to the Dosing Modules at 37° C. for 24 hours before treatment. […] These Tzero (To) plates are read using ultra-sensitive luminescence on Envision plate readers (Perkin Elmer). Treated assay plates are incubated with compound for 72 hours. After 72 hours, plates are developed for endpoint analysis using ATPLite. All data points are collected via automated processes, quality controlled and analyzed using Zalicus software.
# (§2) where T is treated cell count and V is untreated (vehicle) cell count (at 72 hours). I ranges from 0% (when T=V) to 100% (when T=0). […] The measure of effect in the experiment can be the inhibition of cellular response relative to the untreated level (vehicle alone). […] The inhibition ranges from 0% at the untreated level to 100% when T=0. Inhibition levels are negative for agents that actually increase levels. Other effect measures, such as an activity ratio r=T/V may be more appropriate for some assays. When activity ratios (e.g, fold increase over stimulated control) are being used, the effect can be measured using an induction 1=ln(T/V). With this definition, all effect expressions are the same as for inhibition.
# (§3) Growth Inhibition (GI) is used as a measure of cell viability. […] A GI reading of 100% represents complete growth inhibition—T72 compound-treated and T0 vehicle signals are matched. […] A GI reading of 200% represents complete death of all cells in the culture well. Compounds reaching an activity plateau of GI 200% are considered cytotoxic. GI is calculated by applying the following test and equation:
# (§4) Combination analysis data were collected in a 6×6 dose matrix. Synergy is calculated by comparing a combination's response to those of its single compound, against the drug-with-itself dose-additive reference model. Deviations from dose additivity may be assessed visually on an isobologram or numerically with a Combination Index (CI). […] Additive effect is CI=1.0. […] Antagonistic effect is CI>1.0.
# The isobologram was drawn by identifying the locus of concentrations that correspond to crossing the indicated inhibition level. This is done by finding the crossing point for each single agent concentration in a dose matrix across the concentrations of the other single agent. Practically, each vertical concentration CY is held fixed while a bisection algorithm is used to identify the horizontal concentration CX in combination with that vertical dose that gives the chosen effect level in the response surface Z(CX,CY). These concentrations are then connected by linear interpolation to generate the isobologram display. For synergistic interactions, the isobologram contour fall below the additivity threshold and approaches the origin, and an antagonistic interaction would lie above the additivity threshold. The error bars represent the uncertainty arising from the individual data points used to generate the isobologram. The uncertainty for each crossing point is estimated from the response errors using bisection to find the concentrations where Z−αZ(CX,CY) and Z+σZ(CX,CY) cross Icut, where αZ is the standard deviation of the residual error on the effect scale.
# (§5) To measure combination effects in excess of Loewe additivity, a scalar measure to characterize the strength of synergistic interaction termed the Synergy Score is devised. The Synergy Score is calculated as:
# The fractional inhibition for each component agent and combination point in the matrix is calculated relative to the median of all vehicle-treated control wells.
# Farage = settings: combination with Compound 1
# HBL-1 = test system: HBL-1
# OCI-Ly3 = test system: OCI-Ly3
# U-2932 = test system: U-2932
# Method: as §1, §2, §3, §4, §5
# (§6) The fractional inhibition for each component agent and combination point in the matrix is calculated relative to the median of all vehicle-treated control wells. The Synergy Score equation integrates the experimentally-observed activity volume at each point in the matrix in excess of a model surface numerically derived from the activity of the component agents using the Loewe model for additivity. Additional terms in the Synergy Score equation (above) are used to normalize for various dilution factors used for individual agents and to allow for comparison of synergy scores across an entire experiment. The inclusion of positive inhibition gating or an Idata multiplier removes noise near the zero effect level, and biases results for synergistic interactions at that occur at high activity levels.
# Loewe Volume (Loewe Vol) is used to assess the overall magnitude of the combination interaction in excess of the Loewe additivity model. Loewe Volume is particularly useful when distinguishing synergistic increases in a phenotypic activity (positive Loewe Volume) versus synergistic antagonisms (negative Loewe Volume). […] This model defines additivity as a non-synergistic combination interaction where the combination dose matrix surface should be indistinguishable from either drug crossed with itself. The calculation for Loewe additivity is:
# HH = format: cell-based; settings: combination with Compound 1
# Method: The method is described as follows.
# Additive effect is CI=1.0. […] Antagonistic effect is CI>1.0.
# The Synergy Score is calculated as: […]
# OCI-Ly7 = settings: combination with Compound 1, 72 h
# SU-DHL-4-epst = settings: combination with Compound 1, 72 h
# DOHH-2 = settings: combination with Compound 1, 72 h
# SU-DHL-10-epst = settings: combination with Compound 1, 72 h
# RL = settings: combination with Compound 1, 72 h
# KARPAS-422 = settings: combination with Compound 1, 72 h
# WSU-NHL = settings: combination with Compound 1, 72 h
# KARPAS-299 = settings: combination with Compound 1
# Method: as §1, §2, §3, §4, §5, §6
# (§7) Loewe Volume (Loewe Vol) is used to assess the overall magnitude of the combination interaction in excess of the Loewe additivity model. Loewe Volume is particularly useful when distinguishing synergistic increases in a phenotypic activity (positive Loewe Volume) versus synergistic antagonisms (negative Loewe Volume). […] This model defines additivity as a non-synergistic combination interaction where the combination dose matrix surface should be indistinguishable from either drug crossed with itself.
# GRANTA-519 = settings: combination with Compound 1
# Method: as §1, §2, §3, §4, §5, §6, §7
# Jeko-1 = settings: combination with Compound 1
# Mino = settings: combination with Compound 1
# NCI-H929 = settings: combination with Compound 1
# OMP-2 = settings: combination with Compound 1; OPM-2
# RPMI-8226 = settings: combination with Compound 1
# Method: as §1, §2, §3, §4, §5, §6, §7
# [1] = combination with CAL-101, Example 2
# [2] = combination with Cmpd 1, Example 2
# [3] = combination with CAL-101, OCT-Ly3, Example 2
# [4] = combination with Cmpd 1, OCT-Ly3, Example 2
# [5] = combination with Compound 1, 72 h
# [6] = combination with Compound 1, OCI-Ly3, 72 h
compound,measurement,setting,value
"COc1ccc(-c2ccc3c(N4CCOC[C@@H]4C)nc(N4CCOC[C@@H]4C)nc3n2)cc1CO [AZD8055, (5-{2,4-bis[(3S)-3-methylmorpholin-4-yl]pyrido[2,3-d]pyrimidin-7-yl}-2-methoxyphenyl)methanol]",effect of the combination (isobologram),"TMD8; combination with Compound 1, TMD8 DLBCL cell line, FIG. 1-3",synergistic effect
same,effect of the combination (isobologram),"Farage; Farage DLBCL cell line, FIG. 4-5",synergistic effect
CC(=O)c1c(C)c2cnc(Nc3ccc(N4CCNCC4)cn3)nc2n(C2CCCC2)c1=O [PD-0332991],Synergy Score growth inhibition,HBL-1; [1],A1 (A1=0.0001 to <1)
same,Synergy Score inhibition,HBL-1; [1],A1 (A1=0.0001 to <1)
same,Synergy Score growth inhibition,HBL-1; [2],A1 (A1=0.0001 to <1)
same,Synergy Score inhibition,HBL-1; [2],A1 (A1=0.0001 to <1)
same,CI50 growth inhibition,OCI-Ly3; [3],S (S=0.01 to <0.5)
same,CI50 inhibition,OCI-Ly3; [3],S (S=0.01 to <0.5)
same,Synergy Score growth inhibition,OCI-Ly3; [3],A3 (A3=>3)
same,Synergy Score inhibition,OCI-Ly3; [3],A2 (A2=1 to <3)
same,CI50 growth inhibition,OCI-Ly3; [4],T (T=0.5 to <0.7)
same,CI50 inhibition,OCI-Ly3; [4],U (U=0.7 to <1)
same,Synergy Score growth inhibition,OCI-Ly3; [4],A2 (A2=1 to <3)
same,Synergy Score inhibition,OCI-Ly3; [4],A1 (A1=0.0001 to <1)
same,Synergy Score growth inhibition,U-2932; [1],A1 (A1=0.0001 to <1)
same,Synergy Score inhibition,U-2932; [1],A1 (A1=0.0001 to <1)
same,Synergy Score growth inhibition,U-2932; [2],A1 (A1=0.0001 to <1)
same,Synergy Score inhibition,U-2932; [2],A1 (A1=0.0001 to <1)
same,CI50 growth inhibition,TMD8; [1],S (S=0.01 to <0.5)
same,CI50 inhibition,TMD8; [1],S (S=0.01 to <0.5)
same,Synergy Score growth inhibition,TMD8; [1],A3 (A3=>3)
same,Synergy Score inhibition,TMD8; [1],A2 (A2=1 to <3)
same,CI50 growth inhibition,TMD8; [2],S (S=0.01 to <0.5)
same,CI50 inhibition,TMD8; [2],S (S=0.01 to <0.5)
same,Synergy Score growth inhibition,TMD8; [2],A3 (A3=>3)
same,Synergy Score inhibition,TMD8; [2],A2 (A2=1 to <3)
C=CC(=O)N1CCC[C@@H](n2nc(-c3ccc(Oc4ccccc4)cc3)c3c(N)ncnc32)C1 [PCI-32765],CI50 growth inhibition,HBL-1; [1],S (S=0.01 to <0.5)
same,Synergy Score growth inhibition,HBL-1; [1],A2 (A2=1 to <3)
same,Synergy Score inhibition,HBL-1; [1],A1 (A1=0.0001 to <1)
same,CI50 growth inhibition,HBL-1; [2],S (S=0.01 to <0.5)
same,Synergy Score growth inhibition,HBL-1; [2],A2 (A2=1 to <3)
same,Synergy Score inhibition,HBL-1; [2],A1 (A1=0.0001 to <1)
same,Synergy Score growth inhibition,OCI-Ly3; [3],A1 (A1=0.0001 to <1)
same,Synergy Score inhibition,OCI-Ly3; [3],A1 (A1=0.0001 to <1)
same,CI50 growth inhibition,OCI-Ly3; [4],S (S=0.01 to <0.5)
same,Synergy Score growth inhibition,OCI-Ly3; [4],A1 (A1=0.0001 to <1)
same,Synergy Score inhibition,OCI-Ly3; [4],A1 (A1=0.0001 to <1)
same,CI50 growth inhibition,U-2932; [1],T (T=0.5 to <0.7)
same,CI50 inhibition,U-2932; [1],U (U=0.7 to <1)
same,Synergy Score growth inhibition,U-2932; [1],A2 (A2=1 to <3)
same,Synergy Score inhibition,U-2932; [1],A2 (A2=1 to <3)
same,CI50 growth inhibition,U-2932; [2],U (U=0.7 to <1)
same,CI50 inhibition,U-2932; [2],U (U=0.7 to <1)
same,Synergy Score growth inhibition,U-2932; [2],A2 (A2=1 to <3)
same,Synergy Score inhibition,U-2932; [2],A2 (A2=1 to <3)
same,CI50 growth inhibition,TMD8; [1],S (S=0.01 to <0.5)
same,CI50 inhibition,TMD8; [1],S (S=0.01 to <0.5)
same,Synergy Score growth inhibition,TMD8; [1],A3 (A3=>3)
same,Synergy Score inhibition,TMD8; [1],A3 (A3=>3)
same,CI50 growth inhibition,TMD8; [2],U (U=0.7 to <1)
same,CI50 inhibition,TMD8; [2],T (T=0.5 to <0.7)
same,Synergy Score growth inhibition,TMD8; [2],A3 (A3=>3)
same,Synergy Score inhibition,TMD8; [2],A3 (A3=>3)
"O=C(Nc1ccc2[nH]nc(-c3ccncc3)c2c1)[C@@H]1CCN(CC(=O)N2CCN(c3ccc(-c4ncccn4)cc3)CC2)C1 [SCH772984, (R)-1-(2-oxo-2-(4-(4-(pyrimidin-2-yl)phenyl)piperazin-1-yl)ethyl)-N-(3-(pyridin-4-yl)-1H-indazol-5-yl)pyrrolidine-3-carboxamide]",CI50 growth inhibition,HH,T (T=0.5 to <0.7)
same,CI50 inhibition,HH,S (S=0.01 to <0.5)
same,Synergy Score growth inhibition,HH,A1 (A1=0.0001 to <1)
same,Synergy Score inhibition,HH,A1 (A1=0.0001 to <1)
same,CI50 growth inhibition,HBL-1; [5],T (T=0.5 to <0.7)
same,Synergy Score growth inhibition,HBL-1; [5],A1 (A1=0.0001 to <1)
same,Synergy Score inhibition,HBL-1; [5],A1 (A1=0.0001 to <1)
same,CI50 growth inhibition,OCI-Ly3; [6],W (W=≥1)
same,Synergy Score growth inhibition,OCI-Ly3; [6],A1 (A1=0.0001 to <1)
same,Synergy Score inhibition,OCI-Ly3; [6],A1 (A1=0.0001 to <1)
same,CI50 growth inhibition,U-2932; [5],W (W=≥1)
same,Synergy Score growth inhibition,U-2932; [5],A1 (A1=0.0001 to <1)
same,Synergy Score inhibition,U-2932; [5],A1 (A1=0.0001 to <1)
same,CI50 growth inhibition,TMD8; [5],T (T=0.5 to <0.7)
same,CI50 inhibition,TMD8; [5],U (U=0.7 to <1)
same,Synergy Score growth inhibition,TMD8; [5],A1 (A1=0.0001 to <1)
same,Synergy Score inhibition,TMD8; [5],A1 (A1=0.0001 to <1)
same,Synergy Score growth inhibition,OCI-Ly7,A1 (A1=0.0001 to <1)
same,Synergy Score inhibition,OCI-Ly7,A1 (A1=0.0001 to <1)
same,CI50 growth inhibition,SU-DHL-4-epst,W (W=≥1)
same,Synergy Score growth inhibition,SU-DHL-4-epst,A1 (A1=0.0001 to <1)
same,Synergy Score inhibition,SU-DHL-4-epst,A1 (A1=0.0001 to <1)
same,CI50 growth inhibition,DOHH-2,W (W=≥1)
same,CI50 inhibition,DOHH-2,W (W=≥1)
same,Synergy Score growth inhibition,DOHH-2,A1 (A1=0.0001 to <1)
same,Synergy Score inhibition,DOHH-2,A1 (A1=0.0001 to <1)
same,CI50 growth inhibition,"Farage; Farage, 72 h",T (T=0.5 to <0.7)
same,CI50 inhibition,"Farage; Farage, 72 h",W (W=≥1)
same,Synergy Score growth inhibition,"Farage; Farage, 72 h",A1 (A1=0.0001 to <1)
same,Synergy Score inhibition,"Farage; Farage, 72 h",A1 (A1=0.0001 to <1)
same,CI50 growth inhibition,SU-DHL-10-epst,T (T=0.5 to <0.7)
same,CI50 inhibition,SU-DHL-10-epst,W (W=≥1)
same,Synergy Score growth inhibition,SU-DHL-10-epst,A2 (A2=1 to <3)
same,Synergy Score inhibition,SU-DHL-10-epst,A2 (A2=1 to <3)
same,Synergy Score growth inhibition,RL,A1 (A1=0.0001 to <1)
same,Synergy Score inhibition,RL,A1 (A1=0.0001 to <1)
same,CI50 growth inhibition,KARPAS-422,T (T=0.5 to <0.7)
same,CI50 inhibition,KARPAS-422,W (W=≥1)
same,Synergy Score growth inhibition,KARPAS-422,A1 (A1=0.0001 to <1)
same,Synergy Score inhibition,KARPAS-422,A1 (A1=0.0001 to <1)
same,CI50 growth inhibition,WSU-NHL,U (U=0.7 to <1)
same,CI50 inhibition,WSU-NHL,U (U=0.7 to <1)
same,Synergy Score growth inhibition,WSU-NHL,A1 (A1=0.0001 to <1)
same,Synergy Score inhibition,WSU-NHL,A1 (A1=0.0001 to <1)
same,Synergy Score growth inhibition,KARPAS-299,A1 (A1=0.0001 to <1)
same,Synergy Score inhibition,KARPAS-299,A1 (A1=0.0001 to <1)
same,Synergy Score growth inhibition,GRANTA-519,A1 (A1=0.0001 to <1)
same,Synergy Score inhibition,GRANTA-519,A1 (A1=0.0001 to <1)
same,CI50 growth inhibition,Jeko-1,W (W=≥1)
same,Synergy Score growth inhibition,Jeko-1,A1 (A1=0.0001 to <1)
same,Synergy Score inhibition,Jeko-1,A1 (A1=0.0001 to <1)
same,CI50 growth inhibition,Mino,W (W=≥1)
same,Synergy Score growth inhibition,Mino,A1 (A1=0.0001 to <1)
same,Synergy Score inhibition,Mino,A1 (A1=0.0001 to <1)
same,CI50 growth inhibition,NCI-H929,W (W=≥1)
same,CI50 inhibition,NCI-H929,W (W=≥1)
same,Synergy Score growth inhibition,NCI-H929,A1 (A1=0.0001 to <1)
same,Synergy Score inhibition,NCI-H929,A1 (A1=0.0001 to <1)
same,Synergy Score growth inhibition,OMP-2,A1 (A1=0.0001 to <1)
same,Synergy Score inhibition,OMP-2,A1 (A1=0.0001 to <1)
same,Synergy Score growth inhibition,RPMI-8226,A1 (A1=0.0001 to <1)
same,Synergy Score inhibition,RPMI-8226,A1 (A1=0.0001 to <1)
